{"source": "patent US8652442B2", "about": "“Bioluminescence imaging of myeloperoxidase activity in vivo, methods, compositions and apparatuses therefor” (Washington University, priority 2008, dated 2014)", "key": {"purified MPO": {"biological_target": "T1, purified MPO (Homo sapiens, UniProt P05164)", "T1 construct": "purchased Calbiochem", "T1 sequence (P05164 279-745 limits assumed)": "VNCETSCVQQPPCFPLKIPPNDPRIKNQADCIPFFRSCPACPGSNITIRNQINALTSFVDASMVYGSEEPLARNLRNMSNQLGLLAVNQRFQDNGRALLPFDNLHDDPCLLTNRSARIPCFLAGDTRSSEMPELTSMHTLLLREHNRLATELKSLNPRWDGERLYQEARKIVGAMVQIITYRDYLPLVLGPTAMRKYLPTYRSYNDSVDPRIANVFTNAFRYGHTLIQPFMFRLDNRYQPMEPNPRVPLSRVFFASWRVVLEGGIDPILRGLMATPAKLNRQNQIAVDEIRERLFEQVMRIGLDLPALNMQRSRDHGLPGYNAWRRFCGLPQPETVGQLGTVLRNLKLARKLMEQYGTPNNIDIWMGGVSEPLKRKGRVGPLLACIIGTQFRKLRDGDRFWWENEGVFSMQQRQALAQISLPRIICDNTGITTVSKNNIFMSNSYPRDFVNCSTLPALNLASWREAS", "T1 sequence (P05164 165-273 limits assumed)": "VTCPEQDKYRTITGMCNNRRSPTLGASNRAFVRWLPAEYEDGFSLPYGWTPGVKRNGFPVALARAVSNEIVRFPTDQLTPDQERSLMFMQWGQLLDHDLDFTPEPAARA", "test": "Output of LGTR and luminol in vitro with purified MPO and H2O2", "assay_type": "biochemical", "details": "for light output: purified MPO mixed with 100% serum rather than MEBSS", "from_the_text": "To analyze the output of LGTR and luminol in vitro, […] of each were mixed with purified MPO (5 mU) and vehicle (MEBSS)."}, "MPO activity [1]": {"system": "MPO activity", "test": "BLI of allergic contact hypersensitivity with topical LGTR or luminol, optical filter sets", "assay_type": "in vivo, mice", "experimental": "Thirty min later, mice were simultaneously imaged in the IVIS 100 imaging system (FOV, 10 cm; binning, 8; acquisition time, 300 sec; f/stop, 1) using four different optical filter sets in rapid sequence: 1) no filter, 2) <510 nm filter, 3) >590 nm filter, and 4) >650 nm filter (FIG. 22, FIG. 23). The photon flux as a percentage of an open filter was compared for both compounds (FIG. 23).\nBriefly, murine anti-DNP IgE (20 μg, 100 μl) was intravenously injected to two C57/B mice.\nAdministration of luminol derivatives and imaging: Forty-eight hours post DNFB treatment, luminol-glycine Texas Red (LGTR, 1 mM in DMSO, left mouse) or luminol (1 mM In DMSO, right mouse) were applied topically (45 μl per ear) on both left and right ears. Thirty minutes later, mice were simultaneously imaged using the IVIS 100 imaging system (FOV 10 cm; binning, 8; acquisition time. 300 sec; f/stop, 1) using four different optical filler sets: (1) no filter, (2)<510 nm filler, (3)>590 nm filter and (4)>650 nm filter."}, "human blood": {"system": "human blood", "test": "Ex vivo BLI of LGTR and luminol in human whole blood after PMA stimulation", "assay_type": "cell-based", "experimental": "For analysis of LGTR in whole blood, human blood was freshly drawn from a volunteer (by venous puncture). Blood was stored for up to 6 h in heparinized tubes at room temperature. Ex vivo BLI experiments using whole blood were performed in black-coated 96-well plates. Briefly, 200 μL of blood was added to the wells. LGTR, luminol, or DMSO ([…] of each) were added to the wells. Samples were imaged (exposure time, 160 sec; binning, 8; FOV, 10 cm; open filter or >590 nm) before (t=0) and at the indicated time points after stimulation with PMA (5 μM) or vehicle (ethanol, 1 μL). Photon fluxes±s.e.m. were plotted as a function of time post PMA (min) (FIG. 19). […] In addition, to isolate the buffy coat (white cells), whole blood was centrifuged at 700 rpm for 8 min, and subjected to the same analysis."}, "[2]": {"system": "PMA-stimulated whole blood", "experimental": "Blood was freshly drawn (100-300 μL, by jugular puncture) from MPO^−/− or control MPO^+/+ mice. Blood was stored for up to 6 h in heparinized tubes at room temperature. Ex vivo BLI experiments using whole blood were performed in black-coated 96-well plates. Briefly, 1 μL of blood was diluted in 200 μL of MEBSS supplemented with luminol (100 μM), in the absence or presence of increasing concentrations of 4-ABAFT (0-6.6 mM), L-NMMA (1 mM) or DPI (10 μM). Samples were imaged (exposure time, 60 sec; binning, 4; FOV, 10 cm; open filter) before (t=0) and at the indicated time points after stimulation with PMA (5 μM) or vehicle (DMSO, 1 μL). Photon fluxes±s.e.m. were plotted as a function of time post PMA (min) or concentration of inhibitor.\nLuminol-oxidation can be visualized by bioluminescence imaging and is dependent on MPO activity in vitro. Luminol-dependent BL of stimulated phagocytes and whole blood has been extensively studied using photo-multiplier tube (PMT)-based luminometers. To determine whether BLI could be similarly used to detect oxidant production in biological material, we used a charge-coupled device (CCD)-based bioluminescence imaging system to monitor phagocyte activation in heparinized whole blood (1 μL). Fresh heparinized whole blood (1 μL) was incubated with luminol (100 μM) in MEBSS (200 μL). […] Images show sequential color-coded maps of photon flux superimposed on black & white photographs of the assay plates (FIG. 1b).\nIt is important to note that metals such as iron are highly abundant in blood, but are confined to specific cellular compartments, i.e., hemoglobin in erythrocytes or cytochromes in mitochondrial membranes. […] At t=0, PMA was added to a final concentration of 5 μM and BL was monitored for 60 min at 7.5 min intervals.\nTo determine the relative contribution of other ROS to the BL signal induced by luminol in stimulated blood ex vivo, we focused on two enzymatically-catalyzed ROS products, O2.- and NO., generated by the Phox complex and nitric oxide synthase (NOS), respectively, as well as their reaction product, peroxynitrite (ONOO^−). Freshly-drawn blood (1 μL) from an MPO^+/+ mouse was incubated with the NOS inhibitor L-NMMA (1 mM) or the Phox inhibitor DPI (10 μM), respectively, and imaged 20 min after stimulation with PMA (5 μM)."}, "MPO [3]": {"biological_target": "T2, MPO (Homo sapiens, UniProt P05164)", "T2 sequence (P05164 279-745 limits assumed)": "as the sequence (P05164 279-745 limits assumed) above", "T2 sequence (P05164 165-273 limits assumed)": "as the sequence (P05164 165-273 limits assumed) above", "test": "Dye stability: absorption spectra after treatment with H2O2 and MPO", "assay_type": "physicochemical", "parameters": "purchased Calbiochem", "details": "H2O2 and MPO in Tris buffer, 30, 60 and 90 min", "experimental": "In these experiments, absorption spectra were collected for Texas Red (TXR) and Infrared Dye 820 (IRD) treated with H2O2 and MPO (5 mU) in Tris buffer solution for 30 min, 60 min and 90 min as indicated. […] In these experiments, absorption spectra were collected (RLU vs nm wavelength) of Texas Red (TXR) and Infrared Dye 820 (IRD) treated with H2O2 and MPO ([…]) in Tris buffer solution for 30 min, 60 min and 90 min as indicated. (FIG. 17). […] (FIG. 18). […] Thus, in vitro NIR bioluminescence can be used to study dye and fluorophore stability under various experimental conditions. […]"}, "[4]": {"details": "systemic administration; cited from earlier work"}, "MPO activity [5]": {"system": "MPO activity", "details": "24 h after DNFB, luminol 200 mg/kg BW i.p.", "procedure": "Briefly, murine anti-DNP IgE (20 μg in 100 μl, Sigma-Aldrich) was injected intravenously into 13 MPO^+/+ and 9 MPO^−/− mice. One control mouse of each genetic MPO background was injected with vehicle (saline) only. Twenty-four hours later, all left ears were painted with DNFB (0.2% in acetone:olive oil, 1:3) and all right ears were painted with vehicle (acetone:olive oil, 1:3). On the next day, all mice were imaged following luminol administration (200 mg/kg BW, i.p.). Mice were euthanized immediately after imaging and histological specimens were prepared from both left and right ears by fixation with paraformaldehyde (4%), de-calcification (24 h in 14% EDTA), paraffin-embedding, sectioning (5 μm) and staining with H&E. For each condition, eosinophils were counted in 5 HPF (magnification ×400).\nEosinophil-dominant recruitment and activation was induced by passive immunization against DNP followed by topical challenge with DNFB (Ray, M., et al., J. Immunol. 131, 1096-1102, 1983) in both MPO+/+ control as well as MPO^−/− mice. […] Acute allergic dermatitis was induced by passive immunization with anti-DNP IgE and topical challenge with DNFB on the left ear lobes of MPO^+/+ (n=14) and MPO^−/− (n=10) mice. Right ears served as vehicle controls and mice challenged with DNFB, but not anti-DNP IgE, served as negative controls. […]"}, "MPO [6]": {"biological_target": "T2, MPO", "procedure": "Matrigel was used to immobilize human MPO and/or GOX (that produces H2O2) in vivo (Chen, J. W., et al., Radiology 240, 473-481, 2006). Briefly, GOX (30 U), MPO (20 U), vehicle (PBS) or GOX+MPO (30 and 20 U, respectively) were added to Matrigel (200 μL) at 4° C. The four different mixtures were injected subcutaneously into different locations on the back of NCr nu/nu mice. Thirty minutes later, mice were anesthetized (isoflurane inhalation), administered luminol (200 mg/kg BW, i.p.) and imaged sequentially (exposure time, 60 sec; binning, 4; FOV, 7.5 cm) every 5 minutes up to one hour. Regions of interest (ROI) were manually selected over the four implants and total photon emissions from each implant were plotted as a function of time.\nWe next determined the biochemical requirements and pharmacokinetics of luminol-BL in an intact animal and whether MPO activity could be imaged in vivo. […] We embedded GOX (30 U), MPO (20 U); MPO+GOX (same concentrations) or vehicle (PBS) in Matrigel solution and established subcutaneous implants of these mixtures on the backs of NCR nu/nu mice (n=3, FIG. 2a).\nPhoton fluxes were determined from ROI's, manually drawn over the different implants and plotted as a function of time."}, "MPO activity [7]": {"system": "MPO activity", "details": "mouse, in vivo", "procedure": "To induce acute skin inflammation (Fretland, D. J. et al. Inflammation 19, 333-346, 1995), PMA (100 μM, 20 μL) or vehicle (ethanol) were applied topically (left and right ear, respectively) on the inner and outer surface of the earlobe of MPO^−/− (n=5) or control (n=5) mice. Twenty-four and 48 hours later, luminol was administered (200 mg/kg BW, i.p.) and 10 min later mice were imaged (exposure time, 180 see; binning, 4; FOV, 7.5 cm) under anesthesia (isoflurane inhalation). ROI's were manually selected over the left and right ear lobes (PMA-treated and untreated, respectively) and over the central part of the skull (background). Data were expressed as (PMA—background)/(vehicle—background)±s.e.m.\nTopical application of PMA onto the earlobes of mice induces acute dermatitis, manifested by local swelling, erythema and infiltration of neutrophils. […] We therefore used this model for assessment of MPO activity by luminol-BLI in both MPO^+/+ and MPO^−/− mice. Acute dermatitis was generated by topical application of PMA on the left ear lobe of MPO^+/+ or MPO^−/− mice (shown are three representative mice for each genetic background, n=5 for each). Twenty-four hours after topical application of PMA, mice were imaged (FIG. 3a) following the administration of luminol (200 mg/kg BW, i.p.)."}, "MPO activity [8]": {"system": "MPO activity", "details": "mouse, in vivo", "remark": "listed apart in the source", "procedure": "GzB→Tax mice were monitored for tumorigenesis on ears, limbs and tails by visual examination and palpation, weekly, for 200-300 days after birth. Ten mice with visible tumors at various sizes (1-8 mm in diameter) and locations were administered luminol (200 mg/kg BW, i.p.) and imaged (exposure time, 300 sec; binning, 4; FOV, 10 cm) under anesthesia (isoflurane inhalation). Tumors were excised, fixed in paraformaldehyde (4%), paraffin-embedded, sectioned (5 μm) and stained with H&E or immuno-stained for MPO (see below).\nWe next used BLI to examine tumor-bearing GzB→Tax mice after intraperitoneal administration of luminol (200 mg/kg BW, i.p., FIG. 5 c-g)."}, "MPO activity [9]": {"system": "MPO activity", "details": "mouse, in vivo", "remark": "listed apart in the source", "procedure": "MPO^−/− (n=5) or control MPO^+/+ (n=5) mice were briefly anaesthetized (isoflurane inhalation) and LPS (20 μg in 20 μL PBS) or vehicle (PBS, 20 μL) were injected into the left or right ankles, respectively, using a 30-gauge needle. Mice were administered luminol (as above) and imaged immediately after LPS administration under anesthesia (isoflurane inhalation), as well as 1, 2, 3, 4 and 5 days later (exposure time, 180 sec; binning, 4; FOV, 10 cm). ROIs were manually selected over the left and right feet (LPS-treated and untreated, respectively) and over the proximal part of the tail (background). Data were expressed as (LPS—background)/(vehicle—background)±s.e.m.\nWe next imaged MPO activity in a focal arthritis model. […] LPS was injected to the joints of the left lower limbs of wild type MPO^+/+ (FIG. 3b, left panel, n=5) or MPO^−/− mice (FIG. 3b, right panel, n=5). Vehicle (PBS) was injected into the joints of the right lower limbs. At t=0 (before LPS injection), 24, 48, 72, 96 and 120 h, luminol was administered (200 mg/kg BW, i.p.) and mice were imaged."}, "[10]": {"details": "whole blood 1 μL, luminol 100 μM, PMA 5 μM"}}, "note": "Read-outs that look alike come from different tables or passages of the source."}
{"smiles": "NCC(=O)Nc1cccc2c(=O)[nH][nH]c(=O)c12", "note": "[luminol-glycine, 2-Amino-N-(1,4-dioxo-1,2,3,4-tetrahydrophthalazine-5-yl)acetamide]", "values": [{"measurement": "signal generated", "setting": "purified MPO; control compound, purified MPO", "result": "no signal"}]}
{"smiles": "O=C(CCCCCNS(=O)(=O)c1ccc(C2=c3cc4c5c(c3Oc3c2cc2c6c3CCCN6CCC2)CCC[N+]=5CCC4)c(S(=O)(=O)[O-])c1)NCC(=O)Nc1cccc2c(=O)[nH][nH]c(=O)c12", "note": "[LGTR]", "values": [{"measurement": "BL after induction of acute contact hypersensitivity", "setting": "MPO activity [1]; MPO+/+ mice, 1 mM in DMSO topical, 45 μl per ear", "result": "substantial LGTR-BL"}, {"measurement": "photon flux compared with luminol", "setting": "MPO activity [1]; filters >590 and 650 nm, topical 1 mM in DMSO", "result": "3-4 fold"}, {"measurement": "percent of the signal greater than 590 nm (red spectrum)", "setting": "purified MPO; purified MPO 5 mU in MEBSS buffer, H2O2 50 μM", "result": "~75", "unit": "%"}, {"measurement": "brightness compared with luminol", "setting": "purified MPO; purified MPO in MEBSS buffer", "result": "brighter than luminol"}, {"measurement": "light output", "setting": "purified MPO", "result": "no light output"}, {"measurement": "signal over the luminol signals", "setting": "human blood; early time points in whole blood", "result": "greater than 75%"}, {"measurement": "fraction of signal that was red (>590 nm)", "setting": "human blood; human whole blood, 12 min post PMA stimulation", "result": "greater than 75%"}]}
{"smiles": "c1ccc2c(c1)[I+]c1ccccc1-2", "note": "[DPI, diphenyleneiodonium]", "values": [{"measurement": "effect on PMA-induced BL", "setting": "[2]; DPI 10 μM, MPO+/+ mouse blood, imaged 20 min after PMA 5 μM", "result": "complete abrogation"}]}
{"smiles": "CC1(C)C(=CC=C2CCCC(C=CC3=[N+](CCCCS(=O)(=O)[O-])c4ccc5ccccc5c4C3(C)C)=C2Cl)N(CCCCS(=O)(=O)[O-])c2ccc3ccccc3c21.[Na+]", "note": "[IRD]", "values": [{"measurement": "stability on exposure to MPO over time", "setting": "MPO [3]", "result": "loss of IRD molecular integrity over time"}]}
{"smiles": "CN=C(N)NCCC[C@H](N)C(=O)O.O=C(O)CC(O)(CC(=O)O)C(=O)O", "note": "[L-NMMA, L-N^G-monomethyl arginine citrate]", "values": [{"measurement": "effect on luminol-dependent BL", "setting": "[2]; L-NMMA 1 mM, MPO+/+ mouse blood, imaged 20 min after PMA 5 μM", "result": "did not cause a significant reduction"}]}
{"smiles": "Nc1cccc2c(=O)[nH][nH]c(=O)c12", "note": "[luminol, 5-amino-2,3-dihydro-1,4-phthalazine-dione]", "values": [{"measurement": "light output", "setting": "purified MPO", "result": "no light output"}, {"measurement": "absorption and excretion", "setting": "[4]", "result": "well absorbed and rapidly excreted"}, {"measurement": "toxicity", "setting": "[4]", "result": "relatively non-toxic"}, {"measurement": "photon output compared", "setting": "human blood; human whole blood following PMA stimulation", "result": "exceeded LGTR"}, {"measurement": "luminol-BL signal from inflamed ears", "setting": "MPO activity [5]; MPO+/+ mice", "result": "substantial luminol-BL"}, {"measurement": "luminol-BL signal from inflamed ears", "setting": "MPO activity [5]; MPO−/− mice", "result": "no significant luminol-BL signal"}, {"measurement": "signal-to-background ratio for luminol-BLI", "setting": "MPO [6]; MPO+GOX Matrigel implants in vivo", "result": "exceeded 3000"}, {"measurement": "absorption upon i.p. injection", "setting": "MPO [6]; luminol 200 mg/kg BW i.p.", "result": "rapidly absorbed"}, {"measurement": "time to maximum BL after injection", "setting": "MPO [6]; luminol 200 mg/kg BW i.p., MPO+GOX implant, NCr nu/nu mice", "result": 10, "unit": "min"}, {"measurement": "signal-to-background ratio", "setting": "[2]; few thousand phagocytes in 1 μL whole blood", "result": "> 30"}, {"measurement": "luminol-BL with whole blood of MPO−/− mice", "setting": "[2]; luminol 100 μM, PMA 5 μM, 0-55 min", "result": "undetectable"}, {"measurement": "peak BL over background values", "setting": "[2]; [10]", "result": "30-40 fold"}, {"measurement": "time of BL peak post stimulation", "setting": "[2]; [10]", "result": "20 to 25", "unit": "min"}, {"measurement": "BL of PMA-treated ears over vehicle-treated ears", "setting": "MPO activity [7]", "result": "1.9±0.5", "unit": "fold"}, {"measurement": "background-normalized BL of PMA-treated ears over vehicle-treated ears", "setting": "MPO activity [7]", "result": "13.1±0.2", "unit": "fold"}, {"measurement": "localization of luminol-BL in tumor-bearing mice", "setting": "MPO activity [8]", "result": "colocalized with foci of tumorigenesis"}, {"measurement": "BL signal over background", "setting": "MPO activity [9]", "result": "10 to 15", "unit": "fold"}, {"measurement": "luminol-BL from LPS- or vehicle-treated joints", "setting": "MPO activity [9]", "result": "negligible"}, {"measurement": "peak BL emission, fold over vehicle-treated foot", "setting": "MPO activity [9]", "result": "25 to 30", "unit": "fold"}]}
